Laboratory results published in patent publication US7700111B2, “Auditory nerve protection and re-growth” (The Regents of the University of Michigan, priority 2002, dated 2010).
Entries after “also recorded” stand apart in the source; their conditions may differ.

Key:
Type in all cases: in vivo, guinea pig
[1] = Noise-induced permanent ABR threshold shift; conditions: 10 days after 4 kHz octave band noise, 115 dB SPL, 5 hours; 2, 4, 8, 16, 20 kHz; drug i.p. 30 min before noise; versus 0.9% NaCl
Description: (§1) Each animal received a drug dose before either being noise-exposed for 5 hours or simply placed in the exposure chamber for 5 hours. Auditory brain stem responses (ABR) were measured 2 days before and 10 days after noise exposure or sham exposure. Immediately after the second ABR measurement, animals were sacrificed for histological examination or for measurement of 8-isoprostane.
(§2) Animals were assigned to one of 17 groups (see Table 3). Eight groups were used to assess the effects of these agents on noise-induced threshold (auditory brain stem response, ABR) sensitivity and hair cell damage (cytocochleogram). Nine groups were used to determine the effects on noise-induced lipid peroxidation. Groups were injected intraperitoneally with 5 ml/kg of 0.9% NaCl, 0.2 mg/ml (+)-MK-801, 0.2 mg/ml (−)-MK-801, 0.2 mg/ml L-NAME, 100 mg/ml NAC, or a mixture of 0.2 mg/ml (+)-MK-801 and 100 mg/ml NAC 30 min before being placed in the exposure chamber. Because of the high clearance of PD 174494, one group of animals received 5 ml/kg of 2 mg/ml PD 174494 intraperitoneally 30 min before and 2 hr into noise exposure. A control group received 5 ml/kg of 0.9% NaCl on the same time schedule.
Animals were anesthetized with xylazine (10 mg/kg) and ketamine (40 mg/kg) given intramuscularly. A differential active needle electrode was placed subcutaneously below the test ear and a reference electrode at the vertex. A ground electrode was positioned below the contralateral ear. The sound stimuli consisted of 15 ms tone bursts, with a rise-fall time of 1 ms at frequencies of 2, 4, 8, 16 and 20 kHz, and were generated using a Fordham Audio Generator (Model AG-298, Fordham Radio Supply, Hauppauge N.Y.). They were presented to the right external auditory meatus in a closed acoustic system through an ear bar connected to a transducer (Beyer DT-48, Beyer Dynamic, Farmingdale N.Y.). The sound intensity was varied by 5 dB intervals. One thousand twenty-four tone presentations given at the rate of 9 s^−1 were averaged using a microcomputer and custom software to obtain a waveform. Hearing threshold was defined by the consistent appearance of ABR peaks III or IV. Test/retest reliability was within 5 dB. After the second ABR measurement, the cochleae were harvested.
Animals were exposed to noise in a lighted and ventilated sound exposure chamber while having free access to food and water. The sound chamber was fitted with speakers driven by a noise generator and a power amplifier. Using a ½-inch Brūel and Kjaer condenser microphone and Fast Fourier Transform analyzer, sound levels were measured and calibrated at multiple locations within the sound chamber to ensure uniformity of the stimulus. The stimulus intensity varied by a maximum of 3 dB across measured sites within the exposure chamber. […]

[2] = system: outer and inner hair cells; assay: Hair cell count (cytocochleogram) after noise exposure; conditions: for inner hair cell loss / outer hair cell loss: region 9-13 mm from apex, 10 days after noise, versus 0.9% NaCl; for hair cell loss: hair cell type not specified
Description: as §1, §2
(§3) Animals were exposed to noise in a lighted and ventilated sound exposure chamber while having free access to food and water. The sound chamber was fitted with speakers driven by a noise generator and a power amplifier. Using a ½-inch Brūel and Kjaer condenser microphone and Fast Fourier Transform analyzer, sound levels were measured and calibrated at multiple locations within the sound chamber to ensure uniformity of the stimulus. The stimulus intensity varied by a maximum of 3 dB across measured sites within the exposure chamber. Animals were individually subjected to 4 kHz octave band noise, 115 dB SPL for 5 hours. Two hours after initiation, noise exposure was interrupted for 10 min to perform the second injection of 0.9% NaCl or PD 174494 in groups requiring it.
Animals were sacrificed under deep anesthesia. The bullae were quickly removed and transferred into 4% paraformaldehyde in 0.01 M phosphate-buffered saline (PBS)(pH 7.4). The bone near the apex, round window, and oval window was opened, followed by two gentle local perfusions from the apex with 1 ml of 4% paraformaldehyde each. The tissue was kept in the fixative for 12 hr. After removal of the bony capsule and the lateral wall tissues, the modiolar core including the organ of Corti was removed from the temporal bone. Following permeabilization with 0.3% Triton X-100 for 10 min, whole-mounts of the organ of Corti were stained for actin with fluorescent phalloidin for 30 min to outline hair cells and their stereocilia for a quantitative assessment (Raphael and Altschuler, Hear. Res., 31:173 [1991]). Slide preparations were observed under fluorescence microscopy and missing (as shown by scar formation) and present (as shown by intact stereocilia) hair cells in the sensory epithelium were counted from the apex to the base in 0.19 mm segments. Percent hair cell loss was calculated for each segment. A group mean cytocochleogram was created by averaging the loss at each segment. Differences were evaluated for statistical significance on the basis of data from the region 9-13 mm from apex, the region of greatest damage in a previous study (Ohinata et al., Hear. Res. 146: 28 [2000]).

[3] = system: 8-isoprostane; assay: Cochlear 8-isoprostane (lipid peroxidation) by enzyme immunoassay after noise exposure; conditions: for 8-isoprostane level in the lateral wall / 8-isoprostane level in the modiolar core / 8-isoprostane level in the organ of Corti: after noise exposure, versus 0.9% NaCl
Description: as §1, §2, §3
Animals were anesthetized with xylazine (10 mg/kg) and ketamine (40 mg/kg) given intramuscularly and decapitated. The auditory bullae were removed and the bony capsule of the cochlea was immediately opened.
Guinea pig cochleae were dissected in ice-cold Hanks' balanced salt solution (HBSS, Gibco Laboratories, Grand Island, N.Y.: 1.25 mM CaCl2, 5.55 mM glucose, 0.81 mM MgSO4, 0.44 mM KH2PO4, 136.9 mM NaCl, 0.34 mM Na2HPO4, 5.4 mM KCl, 5.0 mM sodium HEPES, with pH titrated to 7.4 (with NaOH) and osmolality adjusted to 300±1 mOsm with NaCl). Lateral wall tissues (spiral ligament and stria vascularis) and organ of Corti were removed from the modiolar core. The tissues were transferred to a 0.05% dl-dithiothreitol solution to prevent auto-oxidation of arachidonic acid and homogenized with a homogenizer for 30 sec. The homogenate was centrifuged at 7,200×g for 15 min at 4° C. Proteins were measured in aliquots of the supernatant by the Bradford method (Bradford, Anal. Biochem. 72: 248 [1976]). Butyl hydroxytoluene was added to the supernatant to a concentration of 0.1%, followed by 200 μl of ethanol and another homogenization. The homogenate was centrifuged at 1,500×g for 10 min at 4° C. Two hundred μl of 15% KOH was added to the supernatant for determination of the levels of free and esterified 8-isoprostane, and the mixture was incubated at 40° C. for 1 hr. The solution was then acidified to pH 3 with HCl. The samples were applied to octadecylsilyl silica columns pre-activated with methanol and distilled water and subsequently washed with distilled water and then with hexane. 8-isoprostane was eluted with ethyl acetate containing 1% methanol, and the eluate was evaporated under N2 to dryness. The samples were dissolved in 30 μl of acetone and spotted on silica gel G thin layer chromatography plates, which were developed in chloroform/methanol/acetic acid/water (80:18:1:0.8, v/v). 8-isoprostane was located from the Rf of standards run on the same plate and visualized by spraying with 3.5% phosphomolybdic acid. […]

[4] = system: cochlear vasculature; assay: Cochlear blood flow (laser Doppler), blood pressure and vascular conductance after 8-iso-PGF2a / SQ29,548 infusion; conditions: for blood pressure (BP) response / cochlear blood flow (CBF) response: after administration, dose series; for cochlear vascular conductance (VC = CBF/BP) response: intravenous infusion
Description: (§4) The infusion rate was controlled by a syringe pump. Systemic infusions were achieved via a cannula inserted in the right jugular vein. Changes in cochlear blood flow (CBF) were measured with the fine probe of a laser Doppler flowmeter (LDF) placed on the bony surface of the cochlea. Arterial blood pressure (BP) and heart rate were monitored from a cannula in the right carotid artery. BP and CBF were continuously recorded, as was their ratio (CBF/BP) as a derived measure of cochlear vascular […] (VC). The results are shown if FIGS. 10-18.

[5] = system: cochlear vasculature; assay: Noise-induced cochlear vasoconstriction (120 dB, one hour); conditions: given intraperitoneally 1 hour before noise exposure
Description: as §4
Three guinea pigs were exposed to high intensity (120 dB) noise for one hour (6×10 min, red lines in top panel). BP, CBF, and VC measurements were made during 2-min off-noise periods. Over the course of the exposure, there was pronounced vasoconstriction (VC) and decrease in cochlear blood flow (CBF), while BP remained stable (mean±SD).
Noise exposure was as in FIG. 15. However, when the antioxidant glutathione-monoethyl ester (GSHE) was given intraperitoneally 1 hour before noise exposure, the effect of noise on CBF and VC was eliminated.

[6] = AICA infusion of ~25 μg/kg over 2 min, minimal BP change

Molecule	noise-induced ABR threshold shift [1]	inner hair cell loss [2]	outer hair cell loss [2]	8-isoprostane level in the lateral wall [3]	8-isoprostane level in the modiolar core [3]	8-isoprostane level in the organ of Corti [3]	hair cell loss [2]	further results
Cc1ccc(CC2(O)CCN(CCOc3ccc(O)cc3)CC2)cc1 [PD 174494]	significantly attenuated noise-induced hearing loss at 2, 4 and 8 kHz; also recorded: decreased threshold shift	protected only inner hair cells	protected only inner hair cells	did not influence	suppressed	suppressed; also recorded: less with PD 174494 than with the other treatments		inner hair cell loss ([2]; listed as PD 174474): some protective effect; effect on 8-isoprostane formation relative to that of (+)-MK-801 ([3]; organ of Corti and modiolar core): about half
COC(=O)[C@@H](N)CCCNC(=N)N[N+](=O)[O-] [L-NAME, L-N^ω-Nitroarginine methyl ester]	significantly attenuated at 2 kHz; also recorded: increased at 20 kHz; also recorded: not threshold shift	increased	not affected	suppressed; also recorded: decreased 8-isoprostane level	suppressed	decreased 8-isoprostane level in the organ of Corti	had no effect	
CCCCC[C@H](O)/C=C/[C@@H]1[C@H](C/C=C\CCCC(=O)O)[C@@H](O)C[C@H]1O [8-iso-PGF2a, 8-iso-prostaglandin F2a]								BP during AICA infusion ([4]; 2 min AICA infusion, some of the subjects): no significant elevation in BP; decrease in CBF [4, 6]: 25-30%; decrease in VC [4, 6]: 25-30%; blood pressure (BP) response [4]: increasing response; cochlear blood flow (CBF) response [4]: increasing response; blood pressure (BP) response ([4]; listed as 8-isoPGF2a): rapid and concentration-dependent change; cochlear blood flow (CBF) response ([4]; listed as 8-isoPGF2a): rapid and concentration-dependent change; cochlear vascular conductance (VC = CBF/BP) response [4]: dose-dependent constriction of the cochlear vasculature; also recorded: Strong concentration-dependent decrease; also recorded: clear dose-dependent decrease; cochlear vascular conductance (VC = CBF/BP) response ([4]; listed as 8-isoPGF2a): strong dose-dependent decrease; dose at which the VC decrease approaches saturation ([4]; intravenous, mean maximum VC response 1.5-2.5 min after infusion initiation): approximately 30 mg/kg; BP, CBF and VC response to AICA infusion ([4]; sequential 1.25 min infusions via AICA, or 2 min AICA infusion): no significant response to the lower two doses; also recorded: dose-dependent constriction of the cochlear vasculature; also recorded: local vasoconstrictive response
CC(=O)N[C@@H](CS)C(=O)O [NAC, N-acetylcysteine]	significantly attenuated threshold shifts at all frequencies	attenuated; also recorded: some protective effect	attenuated	attenuated	attenuated	attenuated	successful in preventing hair cell loss	
(+)-MK-801	significantly attenuated threshold shifts at all frequencies; also recorded: decreased threshold shift	attenuated; also recorded: some protective effect	attenuated	did not influence	attenuated	attenuated	successful in preventing hair cell loss	
(−)-MK-801		not affected	decreased	did not affect	did not affect	did not affect		
CCOC(=O)CNC(=O)[C@H](CS)NC(=O)CC[C@H](N)C(=O)O [GSHE, glutathione-monoethyl ester]								effect of noise on CBF [5]: eliminated; effect of noise on VC [5]: eliminated
O=C(O)CCC/C=C\C[C@@H]1[C@H](CNNC(=O)Nc2ccccc2)[C@H]2CC[C@@H]1O2 [SQ29,548]								decrease in cochlear vascular constriction ([4]; 35 mg/kg 8-iso-PGF2a i.v. before and after AICA infusion of antagonist, two subjects): 12%; effect on vasoconstriction (VC) by isoPGF2a ([4]; addition of the antagonist): blocked; maximum mean VC value during SQ29,548 infusion, less than after the initial 8-iso-PGF2a infusion ([4]; continuous AICA infusion of antagonist, 8-iso-PGF2a about 75-95 mg/kg i.v. over 20 sec, three subjects): 8-10%
